From ChEMBL document CHEMBL1147420, “Synthesis and biological evaluation of novel coumarin derivatives with a 7-azomethine linkage” (2004)

Tests used:
Assay type in all cases: functional
[1] = Interaction percent with DPPH after 60 minutes was determined at 0.5 mM concentration
[2] = molecular target: Chymotrypsinogen B (Homo sapiens) (UniProt P17538); test: Compound was evaluated for in vitro inhibition of chymotrypsinogen acting as esterase at 1 mM concentration
[3] = molecular target: Chymotrypsinogen B (Homo sapiens) (UniProt P17538); test: Compound was evaluated for in vitro inhibition of chymotrypsinogen induced proteolysis at 0.1 mM concentration
[4] = molecular target: Chymotrypsinogen B (Homo sapiens) (UniProt P17538); test: Compound was evaluated for in vitro inhibition of chymotrypsinogen induced proteolysis at 1 mM concentration
[5] = Interaction percent with DPPH after 20 minutes was determined at 0.1 mM concentration
[6] = molecular target: Serine protease 1 (Homo sapiens) (UniProt P07477); test: Compound was evaluated for in vitro inhibition of trypsin induced proteolysis at 1 mM concentration
[7] = molecular target: Serine protease 1 (Homo sapiens) (UniProt P07477); test: Compound was evaluated for in vitro inhibition of trypsin acting as esterase at 0.1 mM concentration
[8] = molecular target: T1, Seed linoleate 13S-lipoxygenase-1 (Glycine max) (UniProt P08170); test: Compound was evaluated for in vitro inhibition of soybean lipoxygenase at 1 mM concentration; no action
T1 sequence (whole entry): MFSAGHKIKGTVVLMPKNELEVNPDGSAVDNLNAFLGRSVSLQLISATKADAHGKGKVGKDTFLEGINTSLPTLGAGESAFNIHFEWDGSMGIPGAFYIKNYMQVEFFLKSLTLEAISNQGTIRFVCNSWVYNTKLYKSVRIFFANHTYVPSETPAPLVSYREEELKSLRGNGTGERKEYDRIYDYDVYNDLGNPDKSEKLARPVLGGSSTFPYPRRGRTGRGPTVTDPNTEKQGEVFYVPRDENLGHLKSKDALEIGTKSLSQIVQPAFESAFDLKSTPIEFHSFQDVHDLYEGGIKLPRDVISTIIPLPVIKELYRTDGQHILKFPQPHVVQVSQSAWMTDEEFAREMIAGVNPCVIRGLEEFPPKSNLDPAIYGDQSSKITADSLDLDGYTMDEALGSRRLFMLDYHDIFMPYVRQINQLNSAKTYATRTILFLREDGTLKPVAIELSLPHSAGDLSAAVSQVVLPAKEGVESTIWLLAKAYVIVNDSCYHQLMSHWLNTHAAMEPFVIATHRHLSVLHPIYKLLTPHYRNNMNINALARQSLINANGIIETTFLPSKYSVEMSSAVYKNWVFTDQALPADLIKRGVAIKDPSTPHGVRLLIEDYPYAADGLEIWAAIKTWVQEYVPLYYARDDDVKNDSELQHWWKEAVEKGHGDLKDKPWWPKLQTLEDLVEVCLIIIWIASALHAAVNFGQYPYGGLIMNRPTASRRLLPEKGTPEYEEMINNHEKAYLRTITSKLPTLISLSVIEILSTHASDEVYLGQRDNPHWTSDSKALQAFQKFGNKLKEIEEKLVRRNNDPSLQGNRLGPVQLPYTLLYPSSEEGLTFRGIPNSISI

[9] = molecular target: Chymotrypsinogen B (Homo sapiens) (UniProt P17538); test: Compound was evaluated for in vitro inhibition of chymotrypsinogen acting as esterase at 0.1 mM concentration
[10] = Compound was evaluated for percent inhibition of carrageenan induced rat paw edema at 0.005 mmol/kg
[11] = Competition percent of compound with DMSO for hydroxyl radical was determined at 0.1 mM concentration
[12] = Interaction percent with DPPH after 20 minutes was determined at 0.5 mM concentration
[13] = Interaction percent with DPPH after 60 minutes was determined at 0.1 mM concentration
[14] = molecular target: Serine protease 1 (Homo sapiens) (UniProt P07477); test: Compound was evaluated for in vitro inhibition of trypsin induced proteolysis at 0.1 mM concentration
[15] = molecular target: Serine protease 1 (Homo sapiens) (UniProt P07477); test: Compound was evaluated for in vitro inhibition of trypsin acting as esterase at 1 mM concentration

Chymotrypsinogen B (Homo sapiens), sequence (P17538 34-164 limits assumed, other chains not shown): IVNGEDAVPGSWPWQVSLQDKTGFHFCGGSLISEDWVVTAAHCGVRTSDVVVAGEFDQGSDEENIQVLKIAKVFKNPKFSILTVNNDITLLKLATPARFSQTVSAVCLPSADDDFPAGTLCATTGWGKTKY
Chymotrypsinogen B (Homo sapiens), sequence (P17538 167-263 limits assumed, other chains not shown): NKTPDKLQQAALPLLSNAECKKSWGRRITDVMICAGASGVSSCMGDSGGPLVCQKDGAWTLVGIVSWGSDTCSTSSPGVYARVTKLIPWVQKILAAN
Serine protease 1 (Homo sapiens), sequence (P07477 whole entry): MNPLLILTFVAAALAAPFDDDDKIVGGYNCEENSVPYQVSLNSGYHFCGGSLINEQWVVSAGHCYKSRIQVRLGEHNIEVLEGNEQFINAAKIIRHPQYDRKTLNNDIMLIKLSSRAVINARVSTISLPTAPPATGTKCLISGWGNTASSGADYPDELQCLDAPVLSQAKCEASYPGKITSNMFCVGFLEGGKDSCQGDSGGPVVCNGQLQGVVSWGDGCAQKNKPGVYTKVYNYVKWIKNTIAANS

`CC(=O)CC(c1ccccc1)c1c(O)c2ccccc2oc1=O` (stereo not given) [WARFARIN] showed an RA [1] of 12.8%, an inhibition [2] of 98.2% and an inhibition [3] of 62.4%. For the same compound, the inhibition [4] was 86.7%, the RA [5] was 9.2% and the inhibition [6] was 94.8%. The inhibition [7] was 21.2%, the inhibition [8] was “No action” and the inhibition [9] was 18.4%. For the same compound, the inhibition in vivo at 5 µmol/kg [10] was 41%, the Competition [11] was 95.8% and the RA [12] was 10.3%. For the same compound, the RA [13] was 24%, the inhibition [14] was 92.5% and the inhibition [15] was 97.5%.
